From ChEMBL document CHEMBL1201862, “PubChem BioAssay data set” (2004)
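Grown in 96-well plates, cells were treated for 48 hours with each compound at five concentrations. Insufficient inhibition: endpoint recorded as highest concentration tested. GI50 = concentration required for 50% inhibition of growth.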 Activity calls are given as the source filed them. Cut-off read from the data, not from the text of the source: active = GI50 up to about 1.1 µM and inactive = higher.

What was measured:
Experiment in all cases: NCI anticancer screen, dose series, 48 h
[1] = tested on: CCRF-CEM
[2] = tested on: K562
[3] = tested on: HT-29
[4] = tested on: PC-3
[5] = tested on: EKVX
[6] = tested on: UACC-62
[7] = tested on: HCT-15
[8] = tested on: LOX IMVI
[9] = tested on: MDA-MB-435
[10] = tested on: SW-620
[11] = tested on: SN12C
[12] = tested on: SK-MEL-2
[13] = tested on: SK-MEL-5
[14] = tested on: HOP-62
[15] = tested on: MDA-MB-231
[16] = tested on: NCI-H23
[17] = tested on: SF-268
[18] = tested on: HOP-92
[19] = tested on: SF-539
[20] = tested on: RXF 393

| Compound | GI50 [1] | GI50 [2] | GI50 [3] | GI50 [4] | GI50 [5] | GI50 [6] | GI50 [7] [µM] | GI50 [8] | GI50 [9] | GI50 [10] | GI50 [11] | GI50 [12] | GI50 [13] | GI50 [14] | GI50 [15] | GI50 [16] | GI50 [17] | GI50 [18] | GI50 [19] | GI50 [20] |
| --- | --- | --- | --- | --- | --- | --- | --- | --- | --- | --- | --- | --- | --- | --- | --- | --- | --- | --- | --- | --- |
| Clc1ccc(/C(=C/c2ccccc2)Cn2ccnc2)cc1 | 17.5 µM (inactive) | 5.42 µM (inactive) | 29.6 µM (inactive) | 13.6 µM (inactive) | 31.9 µM (inactive) | 28 µM (inactive) | 20.2 | 19.2 µM (inactive) | 19.9 µM (inactive) | 27.6 µM (inactive) | 22.1 µM (inactive) | 14.6 µM (inactive) | 11.1 µM (inactive) | 89.1 µM (inactive) | 30.2 µM (inactive) | 38.2 µM (inactive) | > 100 µM (inactive) | 12.7 µM (inactive) | 24 µM (inactive) | 14.6 µM (inactive) |
| COC(=O)C1(Cc2ccc3c(c2)CCC3)Cc2ccc3c(c2C1=O)CCC3 (centres undefined) | 5.21 µM (inactive) | 3.37 µM (inactive) | 3.29 µM (inactive) | 9.02 µM (inactive) | 11.1 µM (inactive) | 3.84 µM (inactive) | 3.66 | 5.87 µM (inactive) | 1.73 µM (inactive) | 4.11 µM (inactive) | 12.2 µM (inactive) | 4.32 µM (inactive) | 4.35 µM (inactive) | 7.23 µM (inactive) | 5.78 µM (inactive) | 6.62 µM (inactive) | 10 µM (inactive) | 4.84 µM (inactive) | 5.68 µM (inactive) | 2.11 µM (inactive) |
| CC(=O)OCCCOCn1c(Cc2ccccc2)c(C)c(=O)[nH]c1=O | > 100 µM (inactive) | > 100 µM (inactive) | > 100 µM (inactive) | > 100 µM (inactive) | > 100 µM (inactive) | > 100 µM (inactive) | > 100 | > 100 µM (inactive) | > 100 µM (inactive) | > 100 µM (inactive) | > 100 µM (inactive) | > 100 µM (inactive) | > 100 µM (inactive) | > 100 µM (inactive) | > 100 µM (inactive) | > 100 µM (inactive) | > 100 µM (inactive) | > 100 µM (inactive) | > 100 µM (inactive) | > 100 µM (inactive) |
| COC1=C(C)C(=O)c2c(c(COC(N)=O)c3n2CC2C3N2C)C1=O (centres undefined) | 0.0154 µM (active) | 0.051 µM (active) | < 0.01 µM (active) | 0.0555 µM (active) | 0.14 µM (active) | < 0.0114 µM (active) | < 0.0118 | < 0.01 µM (active) | 0.0189 µM (active) | < 0.0113 µM (active) | 0.0132 µM (active) | 0.0361 µM (active) | 0.0209 µM (active) | < 0.01 µM (active) | 0.168 µM (active) | < 0.0108 µM (active) | 0.0256 µM (active) | 0.148 µM (active) | 0.0112 µM (active) | < 0.0331 µM (active) |
| Cc1ccc(SCC(CF)OCn2cc(F)c(=O)[nH]c2=O)cc1 (centres undefined) | 55.2 µM (inactive) | > 100 µM (inactive) | > 100 µM (inactive) | > 100 µM (inactive) | > 100 µM (inactive) |  | > 100 | > 100 µM (inactive) | > 100 µM (inactive) | > 100 µM (inactive) |  | > 100 µM (inactive) | > 100 µM (inactive) | > 100 µM (inactive) | > 100 µM (inactive) | > 100 µM (inactive) | > 100 µM (inactive) | > 100 µM (inactive) | > 100 µM (inactive) | > 100 µM (inactive) |
| c1ccc2c(c1)NC1(N3CCCCC3)CCCCC21 (centres undefined) | 32.4 µM (inactive) | 38.8 µM (inactive) | 39.4 µM (inactive) | 39.4 µM (inactive) | 25.5 µM (inactive) | 48.9 µM (inactive) | 44 | 38.4 µM (inactive) | 35.2 µM (inactive) | 41.2 µM (inactive) | 35.4 µM (inactive) | 49.3 µM (inactive) | 56.1 µM (inactive) | > 100 µM (inactive) | 34.2 µM (inactive) | 50.5 µM (inactive) | 52.5 µM (inactive) | 20 µM (inactive) | > 100 µM (inactive) | 9.16 µM (inactive) |
| C[C@@H]1CCC2[C@@H](C)C(=O)O[C@@H]3C4C[C@@H]1[C@@]23OO[C@@]4(C)O (some centres undefined) | 54.5 µM (inactive) | > 100 µM (inactive) | > 100 µM (inactive) | > 100 µM (inactive) | 57.7 µM (inactive) | > 100 µM (inactive) | > 100 | 23.1 µM (inactive) | 72.6 µM (inactive) | > 100 µM (inactive) | > 100 µM (inactive) | > 100 µM (inactive) | 2.81 µM (inactive) | 48.3 µM (inactive) | > 100 µM (inactive) | 88.5 µM (inactive) | 76 µM (inactive) | > 100 µM (inactive) | 55.6 µM (inactive) | 60.3 µM (inactive) |
| COC(=O)c1ccccc1CC1Cc2c(C)ccc(C)c2C1=O (centres undefined) | 22.2 µM (inactive) | 33.5 µM (inactive) | 14.9 µM (inactive) | 34.8 µM (inactive) | 13.5 µM (inactive) | 28.7 µM (inactive) | 24.6 | 16.5 µM (inactive) | 23.1 µM (inactive) | 35.6 µM (inactive) | 45.3 µM (inactive) | 17.9 µM (inactive) | 17.8 µM (inactive) | 60.1 µM (inactive) | 16 µM (inactive) | 15.4 µM (inactive) | 29.6 µM (inactive) | 17.2 µM (inactive) | 51.2 µM (inactive) | 21.4 µM (inactive) |
| COc1ccc(NC(C)c2ccncc2)cc1 (centres undefined) | > 100 µM (inactive) | > 100 µM (inactive) | > 100 µM (inactive) | > 100 µM (inactive) | > 100 µM (inactive) |  | > 100 | > 100 µM (inactive) | > 100 µM (inactive) | > 100 µM (inactive) | > 100 µM (inactive) | > 100 µM (inactive) | > 100 µM (inactive) | > 100 µM (inactive) | > 100 µM (inactive) | > 100 µM (inactive) | > 100 µM (inactive) | > 100 µM (inactive) | > 100 µM (inactive) | > 100 µM (inactive) |
| O=C1N(c2ccccc2)N=C2c3ccncc3C3=NN(c4ccccc4)C(=O)C123 (centres undefined) | > 40.9 µM (inactive) | 0.252 µM (active) | > 39.6 µM (inactive) | 2.43 µM (inactive) | > 100 µM (inactive) | 5.57 µM (inactive) | 13.2 | 0.411 µM (active) | 4.36 µM (inactive) | 2.53 µM (inactive) | > 100 µM (inactive) | > 100 µM (inactive) | 7.55 µM (inactive) | > 100 µM (inactive) | > 100 µM (inactive) | > 70 µM (inactive) |  | > 100 µM (inactive) | 14.5 µM (inactive) | > 100 µM (inactive) |
| CC(=O)O[C@H]1C[C@]2(C)C(CCC3O[C@@]32C)[C@@]2(CC(c3ccoc3)OC2O)[C@@H]1C (some centres undefined) | 30.7 µM (inactive) | 35.8 µM (inactive) | 75.9 µM (inactive) | 50.1 µM (inactive) | > 100 µM (inactive) | 37.6 µM (inactive) | 37.8 | 78.3 µM (inactive) | 86.7 µM (inactive) | > 100 µM (inactive) | > 100 µM (inactive) | > 100 µM (inactive) | 50 µM (inactive) |  | > 100 µM (inactive) | 72.3 µM (inactive) | > 100 µM (inactive) | > 100 µM (inactive) | > 100 µM (inactive) | > 100 µM (inactive) |
| Cc1cn(C(C)OCCN2C(=O)c3ccccc3C2=O)c(=O)[nH]c1=O (centres undefined) | > 100 µM (inactive) | > 100 µM (inactive) | > 100 µM (inactive) | > 100 µM (inactive) | > 100 µM (inactive) | > 100 µM (inactive) | > 100 | > 100 µM (inactive) | > 100 µM (inactive) | > 100 µM (inactive) | > 100 µM (inactive) | > 100 µM (inactive) | > 100 µM (inactive) | > 100 µM (inactive) | > 100 µM (inactive) | > 100 µM (inactive) |  | > 100 µM (inactive) | > 100 µM (inactive) | > 100 µM (inactive) |
| CC1(C)OC2COC3([C@@H]4OC(C)(C)O[C@@H]4CO)OC(C)(C)OC3C2O1 (some centres undefined) | > 100 µM (inactive) | > 100 µM (inactive) |  | > 100 µM (inactive) | > 100 µM (inactive) | > 100 µM (inactive) | > 100 | > 100 µM (inactive) | > 100 µM (inactive) | > 100 µM (inactive) | > 100 µM (inactive) | > 100 µM (inactive) | > 100 µM (inactive) | > 100 µM (inactive) | > 100 µM (inactive) | > 100 µM (inactive) |  | > 100 µM (inactive) | > 100 µM (inactive) | > 100 µM (inactive) |
| COC(=O)c1c2c(cc3c1CC1(C3)Cc3cc4c(c(C(=O)OC)c3C1)CCCC4)CCCC2 | 30.5 µM (inactive) | 43 µM (inactive) | > 100 µM (inactive) | 3.94 µM (inactive) | > 100 µM (inactive) | > 100 µM (inactive) | > 100 | > 100 µM (inactive) | > 100 µM (inactive) |  | > 100 µM (inactive) | 1.55 µM (inactive) | 53.3 µM (inactive) | > 100 µM (inactive) | > 100 µM (inactive) | > 100 µM (inactive) |  | > 100 µM (inactive) | > 100 µM (inactive) | > 100 µM (inactive) |
| N#Cc1c(-c2ccccc2)[nH]c2ccccc2c1=O | > 100 µM (inactive) | 59.4 µM (inactive) | > 100 µM (inactive) | > 100 µM (inactive) | > 100 µM (inactive) | 73.8 µM (inactive) | 62.8 | > 100 µM (inactive) | 17.4 µM (inactive) | 91 µM (inactive) | 95.7 µM (inactive) | 39.6 µM (inactive) | 66.7 µM (inactive) | 27.7 µM (inactive) | 26.2 µM (inactive) |  | 35 µM (inactive) | > 100 µM (inactive) | > 100 µM (inactive) | 30.7 µM (inactive) |
